The supplement of paper PMC4862054

Columns and labels:
[1] = system: MFM-223; settings: 72 h
Summary of the method: (§1)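 EC50 was fitted from dose-response curves and censored at the highest concentration tested. To build those curves, breast cancer cell lines (20 µl suspension) were seeded into 384-well plates containing compound at 5 concentrations in 10-fold steps over a compound-specific 10,000-fold range and incubated for 72 h. Readouts were CellTox Green fluorescence (485/520 nm) for cell death and then CellTiter-Glo luminescence for viability, with each plate normalised to 0.1 % DMSO and a positive kill control.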

[2] = system: CAL-120; settings: 72 h
Summary of the method: as §1

[3] = system: MDA-MB-453; assay: drug sensitivity score (DSS), CellTox Green (DSS (AUC-based score)); higher = stronger drug effect (viability inhibition or cytotoxicity); extreme values may be limits of the assay; settings: incubation time: 72 h
Summary of the method: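 Breast cancer cell lines were seeded in 20 µl suspension into 384-well plates already holding compound and incubated for 72 h. Each compound was tested at 5 concentrations in 10-fold steps across its own 10,000-fold range. Plates were normalised to 0.1 % DMSO and a positive kill control after CellTox Green and then CellTiter-Glo readings. The area under the fitted dose-response curve served as the basis for the drug sensitivity score.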

[4] = system: HCC1143; settings: 72 h
Summary of the method: (§2)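 Plates of 384 wells holding compound in 5 µl medium received breast cancer cell lines in 20 µl suspension and were incubated 72 h. CellTiter-Blue (2.5 µl, 2 h, 37 °C) was used for viability, read at 560/590 nm, and every plate was normalised to vehicle and a positive kill control and assessed by Z'-factor. The EC50 derives from a percent-inhibition dose-response curve fit censored at the highest concentration, leaving out rows whose drug sensitivity score was zero.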

[5] = system: SK-BR-3; settings: 72 h
Summary of the method: as §2

[6] = system: MDA-MB-436; settings: 72 h
Summary of the method: as §2

[7] = system: BT-549; settings: 72 h
Summary of the method: as §2

[8] = system: HCC1937; settings: 72 h
Summary of the method: as §2

[9] = system: HCC1599; settings: 72 h
Summary of the method: as §2

[10] = system: MDA-MB-468; settings: 72 h
Summary of the method: as §2

[11] = system: DU-4475; settings: 72 h
Summary of the method: as §2

[12] = system: CAL-51; settings: 72 h
Summary of the method: as §2

[13] = system: CAL-148; settings: 72 h
Summary of the method: as §2

[14] = system: MDA-MB-453; settings: 72 h
Summary of the method: as §2

[15] = system: MCF-10A; settings: 72 h
Summary of the method: as §1

[16] = system: HDQ-P1; settings: 72 h
Summary of the method: as §1

[17] = system: MDA-MB-231; settings: 72 h
Summary of the method: as §1

[18] = system: HCC1937; settings: 72 h; remark: listed apart in the source
Summary of the method: as §1

[19] = system: MDA-MB-453; settings: 72 h; remark: listed apart in the source
Summary of the method: as §1

[20] = system: BT-474; settings: 72 h
Summary of the method: as §2

[21] = system: Hs578T; settings: 72 h
Summary of the method: as §2

[22] = system: MFM-223; settings: 72 h; remark: listed apart in the source
Summary of the method: as §2

[23] = system: CAL-120; settings: 72 h; remark: listed apart in the source
Summary of the method: as §2

[24] = system: MDA-MB-231; settings: 72 h; remark: listed apart in the source
Summary of the method: as §2

[25] = system: HDQ-P1; settings: 72 h; remark: listed apart in the source
Summary of the method: as §2

[26] = system: DU-4475; settings: 72 h; remark: listed apart in the source
Summary of the method: as §1

[27] = system: BT-474; settings: 72 h; remark: listed apart in the source
Summary of the method: as §1

[28] = system: Hs578T; settings: 72 h; remark: listed apart in the source
Summary of the method: as §1

[29] = system: CAL-85-1; settings: 72 h
Summary of the method: as §1

[30] = system: HCC1143; settings: 72 h; remark: listed apart in the source
Summary of the method: as §1

[31] = system: SK-BR-3; settings: 72 h; remark: listed apart in the source
Summary of the method: as §1

[32] = system: CAL-51; settings: 72 h; remark: listed apart in the source
Summary of the method: as §1

[33] = system: MDA-MB-436; settings: 72 h; remark: listed apart in the source
Summary of the method: as §1

[34] = system: CAL-148; settings: 72 h; remark: listed apart in the source
Summary of the method: as §1

[35] = system: BT-549; settings: 72 h; remark: listed apart in the source
Summary of the method: as §1

[36] = system: HCC1599; settings: 72 h; remark: listed apart in the source
Summary of the method: as §1

[37] = system: MDA-MB-468; settings: 72 h; remark: listed apart in the source
Summary of the method: as §1

[38] = system: CAL-51; settings: 72 h; remark: listed apart in the source
Protocol: (§3)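 Drug sensitivity and resistance testing (DSRT) of breast cancer cell lines in 384-well plates, 5 concentrations in 10-fold dilutions over a compound-specific 10,000-fold range. After 72 h, cytotoxicity was read by CellTox Green fluorescence and viability by CellTiter-Glo luminescence (multiplexed), normalised to DMSO and benzethonium chloride controls. EC50 is the inflection point of the fitted dose-response curve (bottom asymptote free, so it can be relative for partial curves) and is censored at the highest tested concentration. Rows with DSS 0 (no meaningful response) were excluded.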

[39] = system: MDA-MB-436; settings: 72 h; remark: listed apart in the source
Protocol: as §3

[40] = system: CAL-148; settings: 72 h; remark: listed apart in the source
Protocol: as §3

[41] = system: CAL-85-1; settings: 72 h; remark: listed apart in the source
Summary of the method: as §2

## CNC(=O)c1cc(Oc2ccc(NC(=O)Nc3cc(C(C)(C)C)nn3-c3ccc4ncccc4c3)c(F)c2)ccn1 [Rebastinib]
[1]
  EC50, CellTiter-Glo: 0.0313 µM
[2]
  EC50, CellTiter-Glo: 0.155 µM
[3]
  drug sensitivity score: 0

## O=C(O)C(=O)O.[NH-][C@@H]1CCCC[C@H]1[NH-].[Pt+2] [Oxaliplatin]
[3]
  drug sensitivity score: 0
[4]
  EC50, CellTiter-Blue viability: 8.31 µM
[5]
  EC50, CellTiter-Blue viability: 9.66 µM
[6]
  EC50, CellTiter-Blue viability: 4.31 µM
[7]
  EC50, CellTiter-Blue viability: 3.55 µM
[8]
  EC50, CellTiter-Blue viability: 4.81 µM
[9]
  EC50, CellTiter-Blue viability: 0.82 µM
[10]
  EC50, CellTiter-Blue viability: 3.25 µM
[11]
  EC50, CellTiter-Blue viability: 9.22 µM
[12]
  EC50, CellTiter-Blue viability: 9.11 µM
[13]
  EC50, CellTiter-Blue viability: 5.67 µM
[14]
  EC50, CellTiter-Blue viability: 7.47 µM

## COc1cc2nccc(Oc3ccc(NC(=O)Nc4cc(C)on4)c(Cl)c3)c2cc1OC [Tivozanib]
[15]
  EC50, CellTiter-Glo: 8.73 µM
[16]
  EC50, CellTiter-Glo: 3.82 µM
[1]
  EC50, CellTiter-Glo: 1.82 µM
[17]
  EC50, CellTiter-Glo: 8.5 µM
[18]
  EC50, CellTiter-Glo: > 10 µM
[19]
  EC50, CellTiter-Glo: 5.05 µM
[3]
  drug sensitivity score: 0
[20]
  EC50, CellTiter-Blue viability: 2.5 µM
[21]
  EC50, CellTiter-Blue viability: 4.59 µM
[22]
  EC50, CellTiter-Blue viability: 0.344 µM
[23]
  EC50, CellTiter-Blue viability: 4.61 µM
[5]
  EC50, CellTiter-Blue viability: 4.27 µM
[7]
  EC50, CellTiter-Blue viability: 7.35 µM
[24]
  EC50, CellTiter-Blue viability: 6.79 µM
[9]
  EC50, CellTiter-Blue viability: 4.65 µM
[25]
  EC50, CellTiter-Blue viability: 0.774 µM
[12]
  EC50, CellTiter-Blue viability: 7.8 µM
[14]
  EC50, CellTiter-Blue viability: 2.32 µM

## Cc1cnc(NC(=O)Nc2cc(Br)c(C)cc2OC[C@@H]2CNCCO2)cn1
[21]
  EC50, CellTiter-Blue viability: 0.745 µM
[5]
  EC50, CellTiter-Blue viability: 0.715 µM
[6]
  EC50, CellTiter-Blue viability: 0.0987 µM
[8]
  EC50, CellTiter-Blue viability: 0.121 µM
[9]
  EC50, CellTiter-Blue viability: 0.221 µM

## CCCCC(=O)OCC(=O)[C@]1(O)Cc2c(O)c3c(c(O)c2[C@@H](O[C@H]2C[C@H](NC(=O)C(F)(F)F)[C@H](O)[C@H](C)O2)C1)C(=O)c1c(OC)cccc1C3=O [Valrubicin]
[26]
  EC50, CellTiter-Glo: 0.462 µM
[15]
  EC50, CellTiter-Glo: 0.746 µM
[27]
  EC50, CellTiter-Glo: 2.64 µM
[16]
  EC50, CellTiter-Glo: 0.661 µM
[28]
  EC50, CellTiter-Glo: 0.944 µM
[1]
  EC50, CellTiter-Glo: 4.32 µM
[29]
  EC50, CellTiter-Glo: 1.34 µM
[30]
  EC50, CellTiter-Glo: 0.697 µM
[31]
  EC50, CellTiter-Glo: 0.343 µM
[32]
  EC50, CellTiter-Glo: 0.162 µM
[33]
  EC50, CellTiter-Glo: 0.311 µM
[34]
  EC50, CellTiter-Glo: 0.322 µM
[35]
  EC50, CellTiter-Glo: 0.794 µM
[17]
  EC50, CellTiter-Glo: 4.48 µM
[18]
  EC50, CellTiter-Glo: 0.629 µM
[36]
  EC50, CellTiter-Glo: 3.22 µM
[19]
  EC50, CellTiter-Glo: 3.05 µM
[37]
  EC50, CellTiter-Glo: 0.29 µM
[3]
  drug sensitivity score: 0
[38]
  EC50, CellTox Green: 0.0261 µM
[39]
  EC50, CellTox Green: > 5 µM
[40]
  EC50, CellTox Green: 0.0466 µM
[20]
  EC50, CellTiter-Blue viability: 0.916 µM
[21]
  EC50, CellTiter-Blue viability: 1.23 µM
[22]
  EC50, CellTiter-Blue viability: 2.81 µM
[23]
  EC50, CellTiter-Blue viability: 0.281 µM
[4]
  EC50, CellTiter-Blue viability: 0.525 µM
[5]
  EC50, CellTiter-Blue viability: 0.17 µM
[6]
  EC50, CellTiter-Blue viability: 1.52 µM
[7]
  EC50, CellTiter-Blue viability: 1.09 µM
[24]
  EC50, CellTiter-Blue viability: 0.721 µM
[8]
  EC50, CellTiter-Blue viability: 0.211 µM
[9]
  EC50, CellTiter-Blue viability: 2.32 µM
[10]
  EC50, CellTiter-Blue viability: 0.369 µM
[11]
  EC50, CellTiter-Blue viability: 0.0655 µM
[25]
  EC50, CellTiter-Blue viability: 0.236 µM
[41]
  EC50, CellTiter-Blue viability: 1.17 µM
[12]
  EC50, CellTiter-Blue viability: 0.148 µM
[13]
  EC50, CellTiter-Blue viability: 0.123 µM
[14]
  EC50, CellTiter-Blue viability: 0.83 µM
